Where two headings read alike, the source gives them in different places.
Biological target: T1, CFTR (Homo sapiens, UniProt P13569, DEL508-508)
T1 construct: endogenous in cells; host or cells: primary human bronchial epithelial cells from CF subjects (F508del/MF-HBE), differentiated at air-liquid interface
Experiment: HBE assay: Ussing chamber assay of CFTR-mediated short-circuit currents
Assay type: cell-based
Details: for activation at 10 µM: read-out: HBE activity at 10 (μM) (%); for EC50: read-out: HBE EC50
Method in brief: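 CFTR-mediated Isc (μA/cm²) equals the peak response to apical 20 μM forskolin minus the residual after a 20 μM each BPO/GlyH-101/CFTR inhibitor 172 cocktail, recorded in Ussing chambers at Vhold 0 mV, 37 °C, pH 7.4, with 30 μM apical amiloride. Cells were F508del/MF HBE cultures preincubated 18-24 h with corrector (concentration range or 10 μM) plus 1 μM ivacaftor in 20% human serum.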

[1] = Table 10, read-out: HBE Max activity (%)
[2] = Table 11, read-out: HBE Max Activity (%)

T1 sequence (P13569 with tags, fused parts or gaps DEL508-508): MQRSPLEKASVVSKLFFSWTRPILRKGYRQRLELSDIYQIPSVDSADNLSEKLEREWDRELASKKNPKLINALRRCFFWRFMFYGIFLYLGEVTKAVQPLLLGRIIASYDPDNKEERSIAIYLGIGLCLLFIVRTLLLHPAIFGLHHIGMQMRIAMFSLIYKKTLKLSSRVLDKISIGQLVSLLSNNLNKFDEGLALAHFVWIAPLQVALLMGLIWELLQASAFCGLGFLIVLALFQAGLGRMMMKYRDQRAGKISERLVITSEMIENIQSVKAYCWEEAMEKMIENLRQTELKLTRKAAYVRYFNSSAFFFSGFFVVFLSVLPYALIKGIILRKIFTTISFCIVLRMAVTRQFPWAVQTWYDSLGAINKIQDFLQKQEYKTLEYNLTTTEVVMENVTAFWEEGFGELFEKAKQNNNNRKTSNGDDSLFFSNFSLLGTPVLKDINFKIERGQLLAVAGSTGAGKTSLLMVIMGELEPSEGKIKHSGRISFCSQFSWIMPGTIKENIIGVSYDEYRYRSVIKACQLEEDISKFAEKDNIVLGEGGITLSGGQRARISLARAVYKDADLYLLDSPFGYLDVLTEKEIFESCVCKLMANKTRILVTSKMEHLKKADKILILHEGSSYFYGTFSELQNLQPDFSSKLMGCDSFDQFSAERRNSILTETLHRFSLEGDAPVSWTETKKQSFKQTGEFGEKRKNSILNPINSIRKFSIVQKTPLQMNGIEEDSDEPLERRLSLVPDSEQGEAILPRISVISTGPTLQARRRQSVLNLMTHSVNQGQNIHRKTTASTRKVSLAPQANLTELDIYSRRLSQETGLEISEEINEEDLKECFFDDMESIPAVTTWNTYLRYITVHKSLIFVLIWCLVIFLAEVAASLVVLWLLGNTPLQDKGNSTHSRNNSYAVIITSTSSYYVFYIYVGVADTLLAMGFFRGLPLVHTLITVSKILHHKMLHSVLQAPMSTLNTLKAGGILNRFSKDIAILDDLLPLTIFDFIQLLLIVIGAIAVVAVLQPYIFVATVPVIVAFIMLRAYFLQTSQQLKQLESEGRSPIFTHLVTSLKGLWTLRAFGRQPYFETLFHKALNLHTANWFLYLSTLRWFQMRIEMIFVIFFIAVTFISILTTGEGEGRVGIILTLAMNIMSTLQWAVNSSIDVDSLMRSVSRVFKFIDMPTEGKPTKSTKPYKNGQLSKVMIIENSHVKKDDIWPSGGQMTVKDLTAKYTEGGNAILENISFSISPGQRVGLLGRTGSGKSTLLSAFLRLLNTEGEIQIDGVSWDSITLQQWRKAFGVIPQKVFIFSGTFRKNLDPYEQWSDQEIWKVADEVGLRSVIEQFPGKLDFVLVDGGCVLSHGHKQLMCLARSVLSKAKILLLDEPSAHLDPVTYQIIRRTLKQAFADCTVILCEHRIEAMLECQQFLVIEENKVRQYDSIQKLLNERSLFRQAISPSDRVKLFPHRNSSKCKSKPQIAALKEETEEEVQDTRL

Structure (SMILES) | Emax [1] | activation at 10 µM (Table 10) | also measured
Cc1cccc(C)c1-c1cc2nc(n1)NS(=O)(=O)c1cccc(c1)C(=O)N(Cc1cccc(OCC(C)(C)C)n1)[C@H](CC(C)(C)C)CO2 [Compound 469] | > 60% |  | 
Cc1cccc(C)c1-c1cc2nc(n1)NS(=O)(=O)c1cccc(c1)C(=O)N(Cc1cccc(-n3ccc(C(C)(C)C)n3)n1)[C@H](CC(C)(C)C)CO2 [Compound 470] | > 60% |  | 
Cc1cccc(C)c1-c1cc2nc(n1)NS(=O)(=O)c1cccc(c1)C(=O)N(Cc1cccc(NCC(C)(C)C)n1)[C@H](CC(C)(C)C)CO2 [Compound 471] | > 60% |  | 
COCCCNc1cccc(CN2C(=O)c3cccc(c3)S(=O)(=O)Nc3nc(cc(-c4c(C)cccc4C)n3)OC[C@H]2CC(C)(C)C)n1 [Compound 472] | > 60% | > 60% | 
Cc1cccc(C)c1-c1cc2nc(n1)NS(=O)(=O)c1cccc(c1)C(=O)N(CCc1ccc(N3CCC(C)(C)C3)nc1)[C@H](CC(C)(C)C)CO2 [Compound 473] |  |  | EC50 (Table 11): < 1000 nM; Emax [2]: > 60%
Cc1cccc(C)c1-c1cc2nc(n1)NS(=O)(=O)c1cccc(c1)C(=O)N(Cc1cccc(N3CCC(C)(C)CC3)n1)[C@H](CC(C)(C)C)CO2 [Compound 474] |  |  | EC50 (Table 11): < 1000 nM; Emax [2]: > 60%
COCCNc1cccc(CN2C(=O)c3cccc(c3)S(=O)(=O)Nc3nc(cc(-c4c(C)cccc4C)n3)OC[C@H]2CC(C)(C)C)n1 [Compound 475] | > 60% |  | 
Cc1cccc(C)c1-c1cc2nc(n1)NS(=O)(=O)c1cccc(c1)C(=O)N(Cc1ccc(-c3ccccc3)cn1)[C@H](CC(C)(C)C)CO2 [Compound 476] |  |  | HBE Max activity (%) (Table 10): +++ (+++ is >60%); EC50 (Table 10): 1000 to 3000 nM
Cc1cccc(C)c1-c1cc2nc(n1)NS(=O)(=O)c1cccc(c1)C(=O)N(Cc1ccc(NCC(C)(C)C)cn1)[C@H](CC(C)(C)C)CO2 [Compound 477] | > 60% |  | 
Cc1cccc(C)c1-c1cc2nc(n1)NS(=O)(=O)c1cccc(c1)C(=O)N(Cc1ccc(N3CCN(C)CC3)cn1)[C@H](CC(C)(C)C)CO2 [Compound 478] | > 60% |  | 
Cc1ccnc(CN2C(=O)c3cccc(c3)S(=O)(=O)Nc3nc(cc(-c4c(C)cccc4C)n3)OC[C@H]2CC(C)(C)C)n1 [Compound 479] | > 60% | > 60% | 
Cc1cccc(C)c1-c1cc2nc(n1)NS(=O)(=O)c1cccc(c1)C(=O)N(Cc1ccn(C(C)C)n1)[C@H](CC(C)(C)C)CO2 [Compound 480] | > 60% |  | 
Cc1cccc(C)c1-c1cc2nc(n1)NS(=O)(=O)c1cccc(c1)C(=O)N(Cc1cnn(C(C)(C)C)c1)[C@H](CC(C)(C)C)CO2 [Compound 481] | > 60% |  | 
Cc1cccc(C)c1-c1cc2nc(n1)NS(=O)(=O)c1cccc(c1)C(=O)N(Cc1c(C)nn(C(C)(C)C)c1C)[C@H](CC(C)(C)C)CO2 [Compound 482] |  | > 60% | 
Cc1cccc(C)c1-c1cc2nc(n1)NS(=O)(=O)c1cccc(c1)C(=O)N(Cc1c(C)n[nH]c1C)[C@H](CC(C)(C)C)CO2 [Compound 485] |  | > 60% | 
Cc1cccc(C)c1-c1nc2nc(c1C)OC[C@@H](CC(C)(C)C)N(Cc1ncc(N(C)C)cc1N(C)C)C(=O)c1cccc(c1)S(=O)(=O)N2 [Compound 486] |  | > 60% | 
Cc1cccc(C)c1-c1cc2nc(n1)NS(=O)(=O)c1cccc(c1)C(=O)N(Cc1cnn(CC(C)C)c1)[C@H](CC(C)(C)C)CO2 [Compound 487] | > 60% |  | 
COCCN(C)c1cccc(CN2C(=O)c3cccc(c3)S(=O)(=O)Nc3nc(cc(-c4c(C)cccc4C)n3)OC[C@H]2CC(C)(C)C)n1 [Compound 488] | > 60% |  | EC50 (Table 10): < 1000 nM
Cc1cccc(C)c1-c1cc2nc(n1)NS(=O)(=O)c1cccc(c1)C(=O)N(Cc1cccc(N3CCCCC3)n1)[C@H](CC(C)(C)C)CO2 [Compound 489] | > 60% |  | EC50 (Table 10): < 1000 nM
CNc1cccc(CN2C(=O)c3cccc(c3)S(=O)(=O)Nc3nc(cc(-c4c(C)cccc4C)n3)OC[C@H]2CC(C)(C)C)n1 [Compound 490] | > 60% | > 60% | EC50 (Table 10): < 1000 nM
Cc1cccc(C)c1-c1cc2nc(n1)NS(=O)(=O)c1cccc(c1)C(=O)N(Cc1cccc(N(C)C)n1)[C@H](CC(C)(C)C)CO2 [Compound 491] | > 60% | > 60% | EC50 (Table 10): < 1000 nM
Cc1cccc(C)c1-c1cc2nc(n1)NS(=O)(=O)c1cccc(c1)C(=O)N(CC1CCN(c3ccncc3)CC1)[C@H](CC(C)(C)C)CO2 [Compound 492] |  | > 60% | 
Cc1cccc(C)c1-c1cc2nc(n1)NS(=O)(=O)c1cccc(c1)C(=O)N(CC1CCN(c3ccccn3)CC1)[C@H](CC(C)(C)C)CO2 [Compound 493] | > 60% |  | EC50 (Table 10): < 1000 nM
Cc1cc(N(C)C)cnc1CN1C(=O)c2cccc(c2)S(=O)(=O)Nc2nc(cc(-c3c(C)cccc3C)n2)OC[C@H]1CC(C)(C)C [Compound 494] | > 60% |  | EC50 (Table 10): < 1000 nM

Source: patent US20240150377A1, “MODULATORS OF CYSTIC FIBROSIS TRANSMEMBRANE CONDUCTANCE REGULATOR” (VERTEX PHARMACEUTICALS INCORPORATED, priority 2020, published 2024)
